Entries after “also recorded” stand apart in the source; their conditions may differ.
Tests used:
Hippocampal Slices [1] = test: Recovery of synaptic activity (EPSP) in hippocampal slices after hypoxia-hypoglycemia (Example 4); type: cell-based, rat (male Wistar); settings: for recovery of EPSPs, overall effect: concentrations tested in Table 2
Experimental: Young male Wistar rats (150 to 250 g) were anesthetized with ketamine (200 mg/kg IP) and ether and were perfused transcardially with cold, oxygenated, low sodium-containing physiological buffer solution (252 mM sucrose, 3.5 mM KCl, 1.0 mM MgSO4, 20 mM CaC1, 26 mM NaHCO3, 1.25 mM NaH2 PO4, and 10 mM glucose) with 50 μM ketamine added. Brains were removed and hippocampi carefully excised. Hippocampi were sliced transversely at 450 μm and transferred into cold (4° C.) low-sodium buffer solution gassed with 95% O2, 5% CO2 at 31° C. After 45 minutes slices were transferred to oxygenated normal physiological solution (126 mM NaCl, 3.5 mM KCl, 1.0 mM MgSO4, 2.0 mM CaCl2, 20 mM NaHCO3, 1.25 mM NaH2 PO4, and 10 mM glucose) at 31° C. for at least 1 hour before experiments began. After preincubation, slices were transferred to a heated (36° C.), gassed incubation chamber where they were continuously superfused with gassed normal physiological solution. Evoked extracellular synaptic potentials (EPSPs) were obtained using glass micropipettes placed approximately 100 μm into the slice. Electrical stimulation was applied once per minute to the stratum radiatum by insulated paired nichrome wires (60 μm diameter). Stimuli consisted of 150 μA pulses lasting 0.4 msec. […] Data from a slice were used only if EPSP amplitude was greater than 2.0 mV before hypoxia-hypoglycemia.
(§1) Evoked potentials were recorded and analyzed with a digital computer interface. Experiments were started by recording for several minutes under normal conditions (95% O2, 5% CO2, 10 mM glucose). Then drug was added to the superfusion solution (or normal solution was continued in control experiments). After 10 minutes of drug superfusion, hypoxia-hypoglycemia was induced by switching to superfusion solution containing added drug with low glucose (2 mM) that was equilibrated with 95% N2 and 5% CO2. At the same time the slice chamber gas was switched to 95% N2 and 5% CO2. Hypoxia-hypoglycemia was continued for 12 minutes. After 12 minutes, 95% O2 and 10 mM glucose were returned to the slices and the superfusing solution. Following 15 minutes of reoxygenation, the experiment was ended. EPSPs were considered recovered if they returned to at least half of their original amplitude. The percentage of slices with recovered EPSPs were calculated for each condition.
This study was identical in design to Example 3 except that during the hypoxic period of 12 minutes, glucose was reduced from 10 mM to 2 mM rather than from 10 mM to zero as in Example 3.

[2] = system: Neuronal/Glial Cortical Cultures; test: Hypoxia-induced lactate dehydrogenase release (cell injury) in neuronal/glial cortical cultures; type: cell-based, rat (Sprague Dawley); settings: Rattus norvegicus, read-out: % Inh (percent inhibition of the release of lactate dehydrogenase in comparison to hypoxic control cultures)
Experimental: An assay was conducted to compare the inhibitory action of various compounds which are the subject of the present invention. The assay measured the oxygen deprivation-induced neuronal cell death from various cortical cultures. Lactate dehydrogenase (LDH) is a cytosolic enzyme that is only present in the extracellular medium if cell membranes rupture, indicating cell death. Therefore, LDH release into the culture medium is a convenient assay of cell death. The results of Table 3 indicate that each of the compounds tested decreased neuronal cell death from hypoxia in vitro.
The uteri of Sprague Dawley rats in their 18th day of fetal gestation were removed under halothane anesthesia and placed in a chilled bath of magnesium and calcium-free Hank's balanced salt solution (HBSS). Cortical brain hemispheres were removed from individual fetuses and digested in 0.1% trypsin in HBSS for 15 minutes at room temperature. Digested tissue was washed three times with HBSS then dissociated into a single cell suspension by trituration with a glass pipette. […] One hundred microliters of this cell suspension was pipetted into individual wells of 96-well tissue culture plates previously coated with poly-L-lysine, then stored in a humidified incubator (37° C., 3% CO2). Glial cell growth was stopped by the addition of 100 μL of 45% DME, 45% HAM F12, and 10% Horse serum (10/0 DME/F12) containing 15 μg/mL of 5-fluoro-2-deoxyuridine and 35 μg/mL of uridine, 3 days after the initial plating. Cultures were fed at 2- or 3-day intervals thereafter by replacing 100 μL of spent medium with an identical volume of fresh 10/0 DME/F12.
Sixteen-day-old cultures were prepared for experiments by removing growth medium from each culture well and rinsing once with 250 μL of Mg^++ -free HBSS containing 1.8 mM Ca^++ and 1 g/L D-glucose (0 Mg-HBSS) Control and test agent solutions, prepared using 0 Mg-HBSS medium, were dispensed in 50 μL aliquots into individual test wells (Total volume/well=50 μL). All liquid medium preparations to this point were equilibrated with […], 5% CO2. Plates were placed into a 37° C., humidified, triple-gas incubator with O2 and CO2 levels maintained at 1% and 10%, respectively. Plates were removed after 7.5 hours of oxygen deprivation and restored to normoxic conditions (20% O2 /10% CO2, 37° C.) following a 50 μL addition to each well of appropriate control or test agent solutions containing 1.8 mM Ca^++, 1.6 mM Mg^++, and 7.0 g/L D-glucose. Final medium concentrations of 1.8 mM Ca^++, 0.8 mM Mg^++, and 4 g/L D-glucose were present during the reoxygenation period.
Medium concentrations of lactate dehydrogenase (LDH), a cytosolic enzyme normally retained by cells but released upon cell death, were determined for each well following an additional 16.5-hour normoxic exposure period. Individual 25 μL medium specimens were collected from each well and placed into wells of a clean 96-well microtiter plate containing 225 μL of 0.1 M KPO4 buffer (pH=7.5 at 25° C.) and 30 μg NADH (reduced […] adenine dinucleotide). After 10-minute incubation at 37° C., 30 μL of 2.4 mM sodium pyruvate was added to each well and plates were gently shaken to mix solution. Plates were immediately placed into a Multiscan MCC/340 plate reader and scanned for […] (excitation at 340 nm) for 1 minute at 5-second intervals. A kinetic analysis of the change in medium absorbance resulting from shifts in NADH concentrations was used, in combination with factors to correct for temperature, light path, and volume adjustments to determine medium LDH concentrations (IU/mL). Normoxic control baseline LDH levels were subtracted from both hypoxic control and test agent values prior to determining test agent effectiveness in preventing oxygen deprivation-induced injury.

[3] = system: neuroprotective capabilities; test: Neuroprotective capabilities in vitro (general statement); type: cell-based
[4] = system: voltage-dependent sodium channels; settings: cited from earlier work
Hippocampal Slices [5] = test: Effect on synaptic potentials / presynaptic action potential in slices before hypoxia; type: cell-based, rat (male Wistar)
Experimental: Young male Wistar rats (150 to 250 g) were anesthetized with ketamine (200 mg/kg IP) and ether and were perfused transcardially with cold, oxygenated, low sodium-containing physiological buffer solution (252 mM sucrose, 3.5 mM KCl, 1.0 mM MgSO4, 20 mM CaC1, 26 mM NaHCO3, 1.25 mM NaH2 PO4, and 10 mM glucose) with 50 μM ketamine added. Brains were removed and hippocampi carefully excised. Hippocampi were sliced transversely at 450 μm and transferred into cold (4° C.) low-sodium buffer solution gassed with 95% O2, 5% CO2 at 31° C. After 45 minutes slices were transferred to oxygenated normal physiological solution (126 mM NaCl, 3.5 mM KCl, 1.0 mM MgSO4, 2.0 mM CaCl2, 20 mM NaHCO3, 1.25 mM NaH2 PO4, and 10 mM glucose) at 31° C. for at least 1 hour before experiments began. After preincubation, slices were transferred to a heated (36° C.), gassed incubation chamber where they were continuously superfused with gassed normal physiological solution. Evoked extracellular synaptic potentials (EPSPs) were obtained using glass micropipettes placed approximately 100 μm into the slice. […]
Evoked potentials were recorded and analyzed with a digital computer interface. […] The percentage of slices with recovered EPSPs were calculated for each condition.
Excitatory synaptic potential (EPSP) amplitude was measured before and during drug treatment in the 10-minute period preceding reduced oxygen and glucose. […]

[6] = in vivo; cited from earlier work
Hippocampal Slices [7] = test: Recovery of synaptic activity (EPSP) in hippocampal slices after hypoxia-hypoglycemia (Example 3); type: cell-based, rat (male Wistar); settings: for percentage of slices that recovered EPSPs: control approximately 5%
Experimental: An in vitro model with rat hippocampal brain slices exposed to hypoxia-hypoglycemia was used to simulate ischemia. Neuroprotection was measured by the recovery of excitatory postsynaptic potentials after reoxygenation.
Young male Wistar rats (150 to 250 g) were anesthetized with ketamine (200 mg/kg IP) and ether and were perfused transcardially with cold, oxygenated, low sodium-containing physiological buffer solution (252 mM sucrose, 3.5 mM KCl, 1.0 mM MgSO4, 20 mM CaC1, 26 mM NaHCO3, 1.25 mM NaH2 PO4, and 10 mM glucose) with 50 μM ketamine added. Brains were removed and hippocampi carefully excised. Hippocampi were sliced transversely at 450 μm and transferred into cold (4° C.) low-sodium buffer solution gassed with 95% O2, 5% CO2 at 31° C. After 45 minutes slices were transferred to oxygenated normal physiological solution (126 mM NaCl, 3.5 mM KCl, 1.0 mM MgSO4, 2.0 mM CaCl2, 20 mM NaHCO3, 1.25 mM NaH2 PO4, and 10 mM glucose) at 31° C. for at least 1 hour before experiments began. After preincubation, slices were transferred to a heated (36° C.), gassed incubation chamber where they were continuously superfused with gassed normal physiological solution. Evoked extracellular synaptic potentials (EPSPs) were obtained using glass micropipettes placed approximately 100 μm into the slice. Electrical stimulation was applied once per minute to the stratum radiatum by insulated paired nichrome wires (60 μm diameter). Stimuli consisted of 150 μA pulses lasting 0.4 msec. The 150 μA stimulus usually gave nearly a maximal EPSP (excitatory postsynaptic potential) amplitude. Data from a slice were used only if EPSP amplitude was greater than 2.0 mV before hypoxia-hypoglycemia.
as §1

cytokinin activity = settings: cited from earlier work

Compound: NC(=O)N1c2ccccc2C=Cc2ccccc21 [Carbamazepine, carbamazepine]
- Number Slices Recovered / Number Slices Tested (≥50% EPSP amplitude recovery after reoxygenation) (Hippocampal Slices [1]; 20 μM): 2/9
- Number Slices Recovered / Number Slices Tested (≥50% EPSP amplitude recovery after reoxygenation) (Hippocampal Slices [1]; 50 μM): 4/10
- inhibition at 30 µM [2]: 53%
- inhibition at 100 µM [2]: 95%
- neuroprotective capabilities [3]: shown in vitro to have neuroprotective capabilities
- action on voltage-dependent sodium channels [4]: more selective for sodium channels

Compound: Nc1nnc(-c2cccc(Cl)c2Cl)c(N)n1 [Lamotrigine, lamotrigine]
- inhibition at 30 µM [2]: 68%
- inhibition at 100 µM [2]: 83%
- neuroprotective capabilities [3]: shown in vitro to have neuroprotective capabilities

Compound: CCN(CC)CC(=O)Nc1c(C)cccc1C [Lidocaine, lidocaine]
- Number Slices Recovered / Number Slices Tested (≥50% EPSP amplitude recovery after reoxygenation) (Hippocampal Slices [1]; 50 μM): 5/9
- Number Slices Recovered / Number Slices Tested (≥50% EPSP amplitude recovery after reoxygenation) (Hippocampal Slices [1]; 200 μM): 9/10
- protection from loss of EPSPs (Hippocampal Slices [1]; 200 μM): almost complete protection
- recovery of EPSPs, overall effect (Hippocampal Slices [1]): improves recovery of EPSPs at both concentrations tested
- recovery of EPSPs, overall effect (Hippocampal Slices [1]; listed as lidocaine): enhanced recovery of EPSPs
- effect on presynaptic action potential and EPSPs (Hippocampal Slices [5]; 500 μM): reversibly reduced both presynaptic action potential and EPSPs
- neuroprotective capabilities [3]: shown in vitro to have neuroprotective capabilities
- action on voltage-dependent sodium channels [4]: more selective for sodium channels
- peripheral hypotensive effects [6]: peripheral hypotensive effects

Compound: O=C(Nc1ccncc1)Nc1c(Cl)cccc1Cl [N-(2,6-Dichlorophenyl)-N'-4-pyridinyl urea]
- inhibition at 30 µM [2]: 62%
- inhibition at 100 µM [2]: 88%

Compound: Cc1cccc(C)c1NC(=O)Nc1ccncc1 [N-(2,6-dimethylphenyl)-N'-4-pyridinyl urea]
- inhibition at 30 µM [2]: 106%
- inhibition at 100 µM [2]: 81%

Compound: Cc1cccc(Cl)c1NC(=O)Nc1ccncc1 [N-(2-chloro-6-methylphenyl)-N'-4-pyridinyl urea]
- Number Slices Recovered / Number Slices Tested (≥50% EPSP amplitude recovery after reoxygenation) (Hippocampal Slices [7]; 0.5 μM): 0/8
- changes from hypoxia (Hippocampal Slices [7]; 0.5 μM): not different from control treatments
- Number Slices Recovered / Number Slices Tested (≥50% EPSP amplitude recovery after reoxygenation) (Hippocampal Slices [7]; 2 μM): 3/8
- mean EPSP amplitude after hypoxia (Hippocampal Slices [7]; 2 μM): near significance
- protection / improved recovery of EPSPs (Hippocampal Slices [7]; 2 μM and 20 μM): significant protection of hippocampal slices from irreversible loss of synaptic potentials; also recorded: improves recovery of EPSPs
- percentage of slices that recovered EPSPs (Hippocampal Slices [7]; 2 μM): 37%
- Number Slices Recovered / Number Slices Tested (≥50% EPSP amplitude recovery after reoxygenation) (Hippocampal Slices [7]; 20 μM): 9 out of 10
- mean EPSP amplitude after hypoxia (Hippocampal Slices [7]; 20 μM): significant with a high degree of confidence; also recorded: almost complete recovery of EPSPs
- protection from loss of EPSPs (Hippocampal Slices [7]; 20 μM): almost complete protection from loss of EPSPs
- percentage of slices that recovered EPSPs (Hippocampal Slices [7]; 20 μM): 90%
- Number Slices Recovered / Number Slices Tested (≥50% EPSP amplitude recovery after reoxygenation) (Hippocampal Slices [7]; 20 μM, listed as Test drug): 9/10
- mean EPSP amplitude after hypoxia, overall effect (Hippocampal Slices [7]; concentration-related, 0.5-20 μM): significantly increased the mean EPSP amplitude after hypoxia; also recorded: increased EPSP amplitude following hypoxia in a concentration-dependent manner
- effect on EPSP / presynaptic action potential amplitude (Hippocampal Slices [5]; concentrations used, before hypoxia): none of the concentrations tested reduced EPSP or presynaptic action potential amplitude
- inhibition at 30 µM [2]: 101%
- inhibition at 100 µM [2]: 80%
- action on voltage-dependent sodium channels [4]: modulates voltage-dependent sodium channels of nerve cell membranes; also recorded: modulator of neuronal voltage-gated sodium ion channels

Compound: O=C(Nc1cccnc1)Nc1ccc(Cl)c(Cl)c1 [N-(3,4-dichlorophenyl)-N'-3-pyridinyl urea]
- cytokinin activity (cytokinin activity): show such activity

Compound: O=C(Nc1ccncc1)Nc1ccc(Cl)c(Cl)c1 [N-(3,4-dichlorophenyl)-N'-4-pyridinyl urea]
- cytokinin activity (cytokinin activity): show such activity

Compound: COCCOC(=O)C1=C(C)NC(C)=C(C(=O)OC(C)C)C1c1cccc([N+](=O)[O-])c1 (centres unmarked) [Nimodipine, nimodipine]
- prevention of ischemic damage / loss of EPSPs (Hippocampal Slices [1]; 1 μM): failed to prevent loss of EPSPs
- Number Slices Recovered / Number Slices Tested (≥50% EPSP amplitude recovery after reoxygenation) (Hippocampal Slices [1]; 1.0 μM): 1/9
- concentration at which it interacts with sodium channels [4]: greater than 10 μM

Compound: Cc1cccc(Cl)c1NC(=O)/C=C1\SCC(=O)N1C [ralitoline]
- neuroprotective capabilities [3]: shown in vitro to have neuroprotective capabilities
